# According to US20220155322A1, “USE OF NATRIURETIC PEPTIDES TO ASSESS AND TREAT ACUTE KIDNEY INJURY” (Mayo Foundation for Medical Education and Research, priority 2019, published 2022):
# Positions of bridges follow the written chain, without caps; N, C: chain ends. Residues, ends and D or L forms follow the SMILES beside them.
# Assays:
# [1] = tested on: AKI canine kidneys (renal cortex); assay: Renal injury ex vivo analysis (H&E histology and TUNEL); type: in vivo; conditions: AKI canine kidney cortex, compared to vehicle
# Experimental: Histology and TUNEL Analysis: Fixed renal tissues were embedded in paraffin. For histology analysis, paraffin-embedded slides in vehicle (n=5) and CRRL269 (n=5) were stained with hematoxylin and eosin (H&E). A renal pathologist who was blinded to the study examined the H&E stained slides. Renal morphologic injuries such as tubular dilation and vacuolization were evaluated. Renal cortical apoptosis in vehicle (n=5) and CRRL269 (n=5) treated dogs were assessed using a TUNEL assay (Promega; Madison, Wis.) followed the protocol provided by the manufacturer. […] DAPI (Vectashield, Vector Laboratories; Burlingame, Calif.) was used to label the nucleus. TUNEL results were analyzed by confocal fluorescence microscopy (Nikon A50R; Melville, N.Y.).
# [2] = tested on: human primary aortic vascular smooth muscle cells (HASMC); assay: Intracellular calcium under ANGII stimulation (Fura-2); type: cell-based
# Experimental: Measurements of Intracellular Calcium in Vascular Smooth Muscle Cells: HASMC (ScienCell Research Laboratories; Carlsbad, Calif.) were cultured and maintained as instructed by the manufacturer. Cells at passage 4 or 5 were used for experiments. Calcium imaging was performed as described elsewhere (Chai et al., Cardiovasc Res, 100:151-159, 2013). Briefly, cells were seeded on a 25 mm round cover glass (Fisher Scientific; Pittsburgh, Pa.) at a density of 5×10^4 cells per slide. The slides had been pretreated with 0.5 N NaOH for 8 hours, rinsed with water, and sterilized before use. After overnight culturing, the slides with cells were assembled in a MS-02 Chamber (ALA Scientific Instrument; Farmingdale, N.Y.) and loaded with 3 μM fura-2 AM (Invitrogen; Carlsbad, Calif.) for 30 minutes in a 37° C. incubator. The chamber was then placed on the stage of an inverted Olympus IX71 microscope (Olympus America Inc.; Waltham, Mass.). The cells were maintained in 1 mL HASMC medium and treated with or without ANP, BNP, or CRRL269 at concentration of 10^−9 or 10^−7 M for 5 minutes before perfused with 5 mL medium containing ANGII (10^−8 or 10^−7 M). Intracellular Ca2^+ fluorescence signals were measured as a ratio of fluorescence intensities at 510 nm from excitations of 340/380 nm, using a Hamamatsu ORCA-R2 CCD camera with a Sutter LB-LS/17 light source. Baseline fluorescence was recorded after 5 minutes of treatment, and fluorescence images were acquired continuously during the ANGII perfusion. Background fluorescence was subtracted and the calcium signal (F) was normalized to baseline fluorescence (FO) and expressed as a ratio (F/FO) using MetaFluor software (Olympus America Inc.).
# [3] = tested on: human primary renal proximal tubular epithelial cells (HRPTC); assay: Oil immersion induced hypoxia/reoxygenation (H/R) apoptosis, Caspase 3/7 IncuCyte live imaging; type: cell-based; parameters: apoptotic signals in HRPTC after H/R: dose or concentration left out as unconfirmed
# Experimental: Oil Immersion Induced Hypoxia/Reoxygenation in vitro: HRPTC (ScienCell Research Laboratories; Carlsbad, Calif.) were seeded in 96-well plates and cultured for 1 day until 70-80% confluence. Passages 3-5 were used for experiments. Caspase 3/7 green apoptosis assay agent (Essen BioScience; Ann Arbor, Mich.) was added to the culture medium for detection of apoptosis. Plates were then transferred to a time-lapsed, live imaging system IncuCyte (Essen BioScience) for apoptosis monitoring for a total of 24 hours. H/R in cells was mimicked with mineral oil (Sigma, St Louis, Mo.) immersion (Meldrum et al., J Surg Res, 99:288-293, 2001). Cells were immersed in oil for 2 hours, washed twice, and placed in fresh medium containing vehicle (H/R group) or drugs. ANP, BNP, and CRRL269 were used at concentrations of 10^−8, 10^−7, or 10^−6 M. PKG (an important cGMP binding protein) activating analogue 8-pCPT-cGMP (Sigma; St. Louis, Mo.), which is specific for PKG and has low affinity for phosphodiesterases, was used at concentrations of 10^−6, 10^−5, or 10^−4 M. Cells were treated with 10^−6-, 5×10^−6-, or 1.5×10^−5 M PKG inhibitor KT-5823 (Abcam; Cambridge, Mass.) for 30 minutes before 10^−6 M CRRL269 was added. Cells without H/R stimulation were labeled as the negative control (Neg Ctrl) group. Apoptosis signals (e.g., apoptosis object counts) were analyzed with software provided by IncuCyte.
# [4] = tested on: ischemic AKI model in normal mongrel canines; type: in vivo, canine; conditions: after ischemia, 16.3 pmol/kg/min
# Experimental: Ischemic Acute Kidney Injury in Canines: An ischemic AKI model in normal mongrel canines (male, 25-30 kg, n=5 per group) was created with high dose intravenous indomethacin infusion (10 mg/kg with NaHCO3[5 mg/kg] dissolved in 50 ml distilled water) followed by suprarenal ACC (Sandok et al., J Am Soc Nephrol, 196-202, 1992). Briefly, canines were anesthetized with intravenous pentobarbital (15-30 mg/kg) and fentanyl (4-12 μg/kg), intubated, and mechanically ventilated on air with supplemental oxygen, 3 L/minute, 12 cycles/minute (Harvard Apparatus; […], Mass.). The femoral and carotid arteries were accessed for mean arterial pressure (MAP) monitoring and blood sampling. The femoral vein was cannulated for continuous inulin infusion and saline/indomethacin/drug infusions. The left renal artery was attached with a probe for renal blood flow (RBF) measurement and a catheter was placed in the left ureter for passive urine collection. A flow-directed balloon-tipped thermodilution catheter was advanced to the pulmonary artery through the external jugular vein for measurement of cardiac filling pressures and cardiac output (CO). After a 60 minute equilibration, baseline (BL) characteristics were established. […] GFR values were calculated based on inulin clearance. Urinary sodium was measured with pHOx Ultra (Nova Biomedical; Waltham, Mass.).
# [5] = HRPTC, H/R, 10^−8, 10^−7 or 10^−6 M
smiles,measurement,setting,value
CC[C@H](C)[C@@H]1NC(=O)[C@H](CCCNC(=N)N)NC(=O)[C@H](CC(=O)O)NC(=O)[C@H](CCSC)NC(=O)[C@H](CCCCN)NC(=O)[C@H](CCCNC(=N)N)NC(=O)CNC(=O)[C@H](Cc2ccccc2)NC(=O)[C@@H](NC(=O)[C@H](CO)NC(=O)[C@H](CO)NC(=O)[C@H](CCCNC(=N)N)NC(=O)[C@H](CCCNC(=N)N)NC(=O)[C@H](CC(C)C)NC(=O)[C@H](CO)NC(=O)[C@H](CCCNC(=N)N)NC(=O)[C@@H]2CCCN2C(=O)[C@H](C)NC(=O)[C@@H](N)[C@@H](C)O)CSSC[C@@H](C(=O)N[C@@H](CC(N)=O)C(=O)N[C@@H](CO)C(=O)N[C@@H](Cc2ccccc2)C(=O)N[C@@H](CCCNC(=N)N)C(=O)N[C@@H](Cc2ccc(O)cc2)C(=O)O)NC(=O)CNC(=O)[C@H](CC(C)C)NC(=O)CNC(=O)[C@H](CO)NC(=O)[C@H](CO)NC(=O)[C@H](CO)NC(=O)[C@H](CO)NC1=O [CRRL269] (H-TAPRSLRRSSCFGRKMDRISSSSGLGCNSFRY-OH; disulfide 11-27),renal cortex vacuolization (H&E staining),[1],less vacuolization compared to vehicle
same,renal cortical apoptosis (TUNEL assay),[1],reduced apoptosis
same,Ca2^+ suppression relative to ANP and BNP,"[2]; HASMC, pretreatment at 10^−9 or 10^−7 M, ANGII stimulation",less Ca2^+ suppression than ANP and BNP
same,Ca2^+ enhancement by ANGII in HASMC,"[2]; pretreatment at 10^−9 or 10^−7 M for 5 minutes, ANGII 10^−8 or 10^−7 M",suppressed
same,apoptotic signals in HRPTC after H/R,"[3]; CRRL269, compared to H/R group alone",significantly reduced
same,anti-apoptotic effect compared to ANP,[3]; [5],more robust anti-apototic effects compared to ANP
same,anti-apoptotic effect in comparison with BNP,[3]; [5],trend of superiority
same,pulmonary capillary wedge pressure (PCWP),[4],reduced
same,right atrial pressure (RAP),[4],reduced
